The values below come from patent US6867284B1, “Peptide inhibitors of hepatitis C virus NS3 protease” (Istituto di Ricerche di Biologia Molecolare P. Angeletti …, priority 1998, dated 2005).

By IC50 is commonly meant the concentration that gives 50% inhibition.

T1 sequence (P26663 1027-1208, other chains not shown): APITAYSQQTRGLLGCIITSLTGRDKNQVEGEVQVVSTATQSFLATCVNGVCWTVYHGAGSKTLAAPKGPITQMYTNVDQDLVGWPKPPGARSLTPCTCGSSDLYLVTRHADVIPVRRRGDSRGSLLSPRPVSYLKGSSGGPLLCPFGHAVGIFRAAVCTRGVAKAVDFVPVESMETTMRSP

One experiment concerns the target T1, HCV NS3 protease (Hepatitis C virus genotype 1b, UniProt P26663).
T1 construct: an NS3/4A complex comprising the NS3 protease domain
Nature of the experiment: Inhibition of NS3 protease (HPLC cleavage assay, NS3/4A complex with Pep4AK, substrate peptide 4AB). Type of experiment: biochemical. The following applies: Table 1 hexapeptides, cells printed in nM; read-out: IC50. As to the method:
Buffer solutions containing 80 μM Pep4AK were preincubated for 10 minutes with 10-200 nM protease and reactions were started by addition of substrate. Six duplicate data points at different substrate concentrations were used to calculate kinetic parameters. Incubation times were chosen in order to obtain <7% substrate conversion and reactions were stopped by addition of 40 μl 1% TFA. Cleavage of peptide substrates was determined by HPLC using a Merck-Hitachi chromatograph equipped with an autosampler. 80 μl samples were injected on a Lichrospher C18 reversed phase cartridge column (4×74 mm, 5 μm, Merck) and fragments were separated using a 10-40% acetonitrile gradient a 5%/min using a flow rate of 2.5 ml/min. Peak detection was accomplished by monitoring both the absorbance at 220 nm and tyrosine fluorescence (λex=260 nm, λem=305 nm). Cleavage products were quantitated by integration of chromatograms with respect to appropriate standards. Kinetic parameters were calculated from nonlinear least-squares fit of initial rates as a function of substrate concentration with the help of a Kaleidagraph software, assuming Michaelis-Menten kinetics.
Ki values of peptide inhibitors were calculated from substrate titration experiments performed in the presence of increasing amounts of inhibitor. Experimental data sets were simultaneously fitted to eq.1 using a multicurve fit macro with the help of a Sigmaplot software: V=(VmaxS)/(Km(1+[…])+S); (eq.1)
Alternatively, Ki values were derived from IC50 values, calculated using a four-parameter logistic function, according to eq.2: IC50−(1+S/Km)Ki (eq.2)
Regarding `CC(=O)N[C@@H](CC(=O)O)C(=O)N[C@@H](CCC(=O)O)C(=O)N[C@H](C(=O)N[C@@H](CCC(=O)O)C(=O)N[C@@H](CC1CCCCC1)C(=O)NC(CC(F)F)C(=O)O)C(c1ccccc1)c1ccccc1` (single isomer, unassigned) [Compound 1b (L)], the IC50 came out at 20 nM.

On to `CC(=O)N[C@@H](CC(=O)O)C(=O)N[C@@H](CCC(=O)O)C(=O)N[C@H](C(=O)N[C@@H](CCC(=O)O)C(=O)N[C@@H](CC1CCCCC1)C(=O)NC(C=O)CC(F)F)C(c1ccccc1)c1ccccc1` (single isomer, unassigned) [Compound 1c (D)], for which the IC50 stood at 43 nM.

`CC(=O)N[C@@H](CC(=O)O)C(=O)N[C@@H](CCC(=O)O)C(=O)N[C@H](C(=O)N[C@@H](CCC(=O)O)C(=O)N[C@@H](CC1CCCCC1)C(=O)NC(C=O)CC(F)F)C(c1ccccc1)c1ccccc1` (single isomer, unassigned) [Compound 1c (L)]: the IC50 stood at 0.5 nM.

The experiment is the same for the next values; noted with them: Table 1 hexapeptides, cells printed in μM; read-out: IC50.
On to `CC(=O)N[C@@H](CC(=O)O)C(=O)N[C@@H](CCC(=O)O)C(=O)N[C@H](C(=O)N[C@@H](CCC(=O)O)C(=O)N[C@@H](CC1CCCCC1)C(=O)NC(CC(F)F)C(=O)O)C(c1ccccc1)c1ccccc1` (single isomer, unassigned) [Compound 1b (D)], for which the IC50 was 1000 nM.

Still in this experiment, the particulars now being: Table 3 capped dipeptide keto acids; read-out: IC50.
In the case of `CC(C)C[C@H](NC(=O)OCc1ccccc1)C(=O)NC(CC(F)F)C(=O)C(=O)O` (single isomer, unassigned) [Compound 7a], the IC50 is 74000 nM.

As to `CCCCC(=O)N[C@@H](CC(C)C)C(=O)NC(CC(F)F)C(=O)C(=O)O` (single isomer, unassigned) [Compound 7b], the IC50 is 56000 nM.

Turning to `CC(C)C[C@H](NC(=O)CN(CC(=O)O)C(=O)OCc1ccccc1)C(=O)NC(CC(F)F)C(=O)C(=O)O` (single isomer, unassigned) [Compound 7i], the IC50 was 20000 nM.

As to `CC(C)C[C@H](NC(=O)CC1(CC(=O)O)CCCC1)C(=O)NC(CC(F)F)C(=O)C(=O)O` (single isomer, unassigned) [Compound 7l], the IC50 came to 1000 nM.

Take `CC(C)C[C@H](NC(=O)CC1(CC(=O)O)OCCO1)C(=O)NC(CC(F)F)C(=O)C(=O)O` (single isomer, unassigned) [Compound 7p]: the half-maximal inhibitory concentration (IC50) amounted to 15000 nM.

For `CC(C)C[C@H](NC(=O)C1CCCCC1C(=O)O)C(=O)NC(CC(F)F)C(=O)C(=O)O` (single isomer, unassigned) [Compound 8a], the IC50 came out at 32000 nM.

As for `CC(C)C[C@H](NC(=O)Cc1ccccc1CC(=O)O)C(=O)NC(CC(F)F)C(=O)C(=O)O` (single isomer, unassigned) [Compound 8b], the IC50 turned out to be 8000 nM.

`CC(C)C[C@H](NC(=O)Cc1ccccc1C(=O)O)C(=O)NC(CC(F)F)C(=O)C(=O)O` (single isomer, unassigned) [Compound 8e]: the IC50 came to 13000 nM.

Regarding `CC(C)C[C@H](NC(=O)Cc1cccs1)C(=O)NC(CC(F)F)C(=O)C(=O)O` (single isomer, unassigned) [Compound 8f], the IC50 was 42000 nM.

For the molecule `CC(C)C[C@H](NC(=O)c1ccccc1-c1ccccc1C(=O)O)C(=O)NC(CC(F)F)C(=O)C(=O)O` (single isomer, unassigned) [Compound 8g], the IC50 came to 4000 nM.

As for `CC(C)C[C@H](NC(=O)C(Oc1cccc(C(=O)O)c1)c1ccccc1)C(=O)NC(CC(F)F)C(=O)C(=O)O` (single isomer, unassigned) [Compound 8h], the IC50 is 6000 nM.

In the case of `CC(C)C[C@H](NC(=O)[C@H](O)c1cccs1)C(=O)NC(CC(F)F)C(=O)C(=O)O` (single isomer, unassigned) [Compound 8s], the IC50 came out at 18000 nM.

Staying with this experiment, now noted: Table 4 indoline keto acids and related; read-out: IC50.
Regarding `CCCCC1(C(=O)NC(CC(C)C)C(=O)NC(CC(F)F)C(=O)C(=O)O)Cc2ccccc2N1` (mixture of isomers) [Compound 9b], the IC50 was determined as 87000 nM.

Consider `CC(C)C[C@H](NC(=O)C1(C(C)C)Cc2ccccc2N1)C(=O)NC(CC(F)F)C(=O)C(=O)O` (mixture of isomers) [Compound 9c], for which the IC50 worked out at 92000 nM.

Regarding `CC(C)C[C@H](NC(=O)C1(CC(C)C)Cc2ccccc2N1)C(=O)NC(CC(F)F)C(=O)C(=O)O` (mixture of isomers) [Compound 9d], the IC50 worked out at 16000 nM.

Consider `CC(C)=CCC1(C(=O)NC(CC(C)C)C(=O)NC(CC(F)F)C(=O)C(=O)O)Cc2ccccc2N1` (mixture of isomers) [Compound 9e], for which the IC50 came to 69000 nM.

As for `CC(C)CCC1(C(=O)N[C@@H](CC(C)C)C(=O)NC(CC(F)F)C(=O)C(=O)O)Cc2ccccc2N1` (mixture of isomers) [Compound 9f], the IC50 was found to be 120000 nM.

For `CCC(C)CC1(C(=O)N[C@@H](CC(C)C)C(=O)NC(CC(F)F)C(=O)C(=O)O)Cc2ccccc2N1` (mixture of isomers) [Compound 9h], the IC50 was found to be 81000 nM.

Turning to `CC(C)C[C@H](NC(=O)C1(CC2CCC2)Cc2ccccc2N1)C(=O)NC(CC(F)F)C(=O)C(=O)O` (mixture of isomers) [Compound 9j], the IC50 was found to be 34000 nM.

Regarding `CC(C)C[C@H](NC(=O)C1(C2CCCCC2)Cc2ccccc2N1)C(=O)NC(CC(F)F)C(=O)C(=O)O` (mixture of isomers) [Compound 9k], the IC50 turned out to be 69000 nM.

Take `CC(C)C[C@H](NC(=O)C1(CC2CCCCC2)Cc2ccccc2N1)C(=O)NC(CC(F)F)C(=O)C(=O)O` (mixture of isomers) [Compound 9l]: the IC50 is 31000 nM.

For `COCCOCC1(C(=O)N[C@@H](CC(C)C)C(=O)NC(CC(F)F)C(=O)C(=O)O)Cc2ccccc2N1` (mixture of isomers) [Compound 9m], the IC50 is 57000 nM.

On to `CC(C)C[C@H](NC(=O)C1(CC(=O)O)Cc2ccccc2N1)C(=O)NC(CC(F)F)C(=O)C(=O)O` (mixture of isomers) [Compound 9n], for which the concentration for half-maximal inhibition (IC50) worked out at 81000 nM.

On to `CC(C)C[C@H](NC(=O)C1(Cc2ccccc2)Cc2ccccc2N1)C(=O)NC(CC(F)F)C(=O)C(=O)O` (mixture of isomers) [Compound 9o], for which the IC50 worked out at 45000 nM.

Take `CC(C)C[C@H](NC(=O)C1(C(C)c2ccccc2)Cc2ccccc2N1)C(=O)NC(CC(F)F)C(=O)C(=O)O` (mixture of isomers) [Compound 9p]: the IC50 amounted to 88000 nM.

With `CC(C)C[C@H](NC(=O)C1(Cc2cccc(Br)c2)Cc2ccccc2N1)C(=O)NC(CC(F)F)C(=O)C(=O)O` (mixture of isomers) [Compound 9r], the IC50 stood at 100000 nM.

Consider `COc1cccc(CC2(C(=O)N[C@@H](CC(C)C)C(=O)NC(CC(F)F)C(=O)C(=O)O)Cc3ccccc3N2)c1` (mixture of isomers) [Compound 9s], for which the IC50 was determined as 38000 nM.

Regarding `CC(C)CC(NC(=O)C1(Cc2cccc(C#N)c2)Cc2ccccc2N1)C(=O)NC(CC(F)F)C(=O)C(=O)O` (mixture of isomers) [Compound 9t], the IC50 was determined as 9000 nM.

On to `CC(C)C[C@H](NC(=O)C1(Cc2cccc(Oc3ccccc3)c2)Cc2ccccc2N1)C(=O)NC(CC(F)F)C(=O)C(=O)O` (mixture of isomers) [Compound 9v], for which the IC50 was 24000 nM.

Consider `CC(C)C[C@H](NC(=O)C1(Cc2ccc(Cl)s2)Cc2ccccc2N1)C(=O)NC(CC(F)F)C(=O)C(=O)O` (mixture of isomers) [Compound 9w], for which the IC50 was 3000 nM.

Take `CC(C)C[C@H](NC(=O)C1(CC(C)C)Cc2ccc(Oc3ccccc3)cc2N1)C(=O)NC(CC(F)F)C(=O)C(=O)O` (mixture of isomers) [Compound 10c]: the IC50 worked out at 100000 nM.

With `CC(C)C[C@H](NC(=O)C1Cc2ccc(OCC3CC3)cc2N1)C(=O)NC(CC(F)F)C(=O)C(=O)O` (mixture of isomers) [Compound 10d], the IC50 was 66000 nM.

For `CC(C)C[C@H](NC(=O)C1Cc2ccc(OC3CCOC3)cc2N1)C(=O)NC(CC(F)F)C(=O)C(=O)O` (mixture of isomers) [Compound 10g], the IC50 was determined as 23000 nM.

Take `CC(C)C[C@H](NC(=O)C1Cc2ccc(OCC3CCOC3)cc2N1)C(=O)NC(CC(F)F)C(=O)C(=O)O` (mixture of isomers) [Compound 10h]: the IC50 worked out at 16000 nM.

Turning to `CC(C)C[C@H](NC(=O)C1(CC(C)C)CCC(=O)N1)C(=O)NC(CC(F)F)C(=O)C(=O)O` (mixture of isomers) [Compound 11], the IC50 is 43000 nM.

With `CC(C)C[C@H](NC(=O)C1Cc2ccccc2N1)C(=O)NC(CC(F)F)C(=O)C(=O)O` (single isomer, unassigned) [Compound 9a], the IC50 came to 50000 nM.

`CCC(CC)CC1(C(=O)N[C@@H](CC(C)C)C(=O)NC(CC(F)F)C(=O)C(=O)O)Cc2ccccc2N1` (single isomer, unassigned) [Compound 9g]: the IC50 amounted to 15000 nM.

Regarding `CC(C)C[C@H](NC(=O)C1(CC2CC2)Cc2ccccc2N1)C(=O)NC(CC(F)F)C(=O)C(=O)O` (single isomer, unassigned) [Compound 9i], the IC50 worked out at 20000 nM.

In the case of `CC(C)C[C@H](NC(=O)C1(Cc2ccccc2Cl)Cc2ccccc2N1)C(=O)NC(CC(F)F)C(=O)C(=O)O` (single isomer, unassigned) [Compound 9q], the IC50 turned out to be 5000 nM.

For `CC(C)C[C@H](NC(=O)C1(Cc2cccc(C(=O)O)c2)Cc2ccccc2N1)C(=O)NC(CC(F)F)C(=O)C(=O)O` (single isomer, unassigned) [Compound 9u], the IC50 stood at 800 nM.
